Earlier results on two compounds are cited in PMC6595297 (British Journal of Clinical Pharmacology, 2019).

This series concerns human P‐gp transport function. The settings on record: cited from earlier work.

Take `OC(Cn1cncn1)(Cn1cncn1)c1ccc(F)cc1F` [fluconazole]: the “Inhibition of P‐gp (classification)” value is “devoid of P‐gp inhibitory effect”.
For the compound `CCC(C)n1ncn(-c2ccc(N3CCN(c4ccc(OCC5COC(Cn6cncn6)(c6ccc(Cl)cc6Cl)O5)cc4)CC3)cc2)c1=O` (centres unmarked) [itraconazole], the “Inhibition of P‐gp (classification)” value is “strong dual inhibitor of CYP3A and P‐gp”.
